Experimental findings from PMC9521027 (ACS Omega, 2022) are described below.

Assay [1] addresses T1, URAT1 K393R mutant (Homo sapiens, UniProt Q96S37, K393R).
T1 sequence (Q96S37 1-553 K393R): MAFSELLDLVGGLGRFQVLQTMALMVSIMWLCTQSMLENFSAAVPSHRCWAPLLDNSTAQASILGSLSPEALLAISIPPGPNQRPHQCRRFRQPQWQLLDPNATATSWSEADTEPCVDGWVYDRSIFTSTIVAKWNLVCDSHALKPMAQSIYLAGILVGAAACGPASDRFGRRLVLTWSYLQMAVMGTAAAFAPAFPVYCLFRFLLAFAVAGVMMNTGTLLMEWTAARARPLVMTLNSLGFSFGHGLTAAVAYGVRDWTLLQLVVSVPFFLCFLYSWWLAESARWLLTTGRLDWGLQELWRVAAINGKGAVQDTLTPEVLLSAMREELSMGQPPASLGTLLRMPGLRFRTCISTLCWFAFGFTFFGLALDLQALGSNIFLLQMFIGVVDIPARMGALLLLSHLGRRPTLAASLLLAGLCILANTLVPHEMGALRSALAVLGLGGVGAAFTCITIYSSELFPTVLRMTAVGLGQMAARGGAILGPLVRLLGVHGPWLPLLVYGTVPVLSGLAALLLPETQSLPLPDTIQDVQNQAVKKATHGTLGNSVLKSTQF
Put plainly: 14C-uric acid uptake assay in transfected HEK293 cells. It is filed as cell-based.

The target of assay [2] is T2, URAT1 K393H mutant (Homo sapiens, UniProt Q96S37, K393H).
T2 sequence (Q96S37 1-553 K393H): T1 sequence (Q96S37 1-553 K393R) with R393H
Described as above. It is filed as cell-based.

Another assay concerns the target T3, URAT1 K393A mutant (Homo sapiens, UniProt Q96S37, K393A).
T3 sequence (Q96S37 1-553 K393A): T1 sequence (Q96S37 1-553 K393R) with R393A
The description is as above. It is filed as cell-based.

For the next assay, the target named is T4, URAT1 K393D mutant (Homo sapiens, UniProt Q96S37, K393D).
T4 sequence (Q96S37 1-553 K393D): T1 sequence (Q96S37 1-553 K393R) with R393D
The description is as above. It is filed as cell-based.

The next assay deals with T5, URAT1 K393E mutant (Homo sapiens, UniProt Q96S37, K393E).
T5 sequence (Q96S37 1-553 K393E): T1 sequence (Q96S37 1-553 K393R) with R393E
The assay is described as above. It is filed as cell-based.

The target of assay [3] is T2, URAT1 K393H mutant. Nature of the assay: 14C-uric acid binding assay with membrane protein. The note with it: 1 μM BM, 1 μM verinurad, 10 μM lesinurad, 20 μM probenecid, 30 min, 25 μM 14C-uric acid.
Assay [4] deals with T1, URAT1 K393R mutant. Nature of the assay: 14C-uric acid binding assay with membrane protein. As to conditions: 1 μM BM, 1 μM verinurad, 10 μM lesinurad, 20 μM probenecid, 30 min, 25 μM 14C-uric acid.
For another assay, the target named is T6, wild-type hURAT1 (Homo sapiens, UniProt Q96S37).
T6 sequence (Q96S37 1-553): T1 sequence (Q96S37 1-553 K393R) with R393K
Put plainly: cell-based.

As a reminder, the IC50 is the concentration that gives 50% inhibition. Lower therefore signals greater potency in that assay.

Positions count from the first letter of the chain named.

Regarding `CC(C)(Sc1ccncc1-c1ccc(C#N)c2ccccc12)C(=O)O` [verinurad], the IC50 at URAT1 K393R mutant [1] was determined as 310 ± 290 nM; against URAT1 K393H mutant [2], 490 ± 240 nM; on URAT1 K393A mutant it was 420 ± 260 nM; on URAT1 K393D mutant, 440 ± 210 nM; on URAT1 K393E mutant it was 360 ± 220 nM; at wild-type hURAT1, 290 ± 120 nM. Besides, the “Effect of inhibitor on 14C-uric acid binding compared with WT group” value on URAT1 K393H mutant [3] and on URAT1 K393R mutant [4] was “similar” in each case.
